According to article PMC9663578, “A fluorogenic probe for predicting treatment response in non-small cell lung cancer with EGFR-activating mutations” (Nature Communications, 2022):
“And” between values parts separate entries of the source, which are not always exact repeats. Equal values may be shown once.

Key:
A431 = assay: Western blot of EGFR activation and downstream AKT and ERK1/2 phosphorylation; type: cell-based, human
Procedure: (§1) Western blotting analysis was performed to investigate the expression of EGFR and downstream signaling pathway in various cancer cells. Cells were added at a density of 5 × 10^5 per well in six-well plates and serum-starved in DMEM without FBS. […] After a PBS washing step, the cells were harvested and lysed in RIPA lysis buffer (Thermo Scientific, #89900) on ice for 20 min. After sonication, cell lysates were centrifuged at 12,000×g at 4 °C for 20 min. The supernatant was collected and protein concentration was determined by a BCA protein quantitation kit (Vazyme) and normalized to 2 mg/mL. Subsequently, 20 µL of protein sample was loaded to each lane and resolved on a 10% SDS-PAGE gel. After that, proteins on the gel were transferred onto polyvinylidene difluoride (PVDF) membranes (0.45 µm, Amersham Bioscience). PVDF membranes were blocked with 5% BSA blocking solution for 2 h at room temperature, followed by incubation with different primary antibodies (4 °C, overnight), including EGFR (#4267, 1:1000), phospho-EGFR (#3777, 1:1000), Akt (#4685, 1:1000), phospho-Akt (#4060, 1:1000), ERK1/2 (#4695, 1:1000), phospho-ERK1/2 (#4370, 1:2000) and GAPDH (#5174, 1:2000). Next, the membranes were washed by TBST buffer (Tris buffer with 0.1% Tween-20) for three times, followed by incubation with anti-rabbit IgG (HRP-linked antibody, #7074, 1:5000) for 1 h at room temperature. Finally, the blots were washed in PBST and immunoreactive proteins were detected using a luminal solution with ECL enhancer and H2O2 by ChemiDoc MP (BioRad) with Image Lab 6.0 software. The band density of each band was quantified and normalized to that of the corresponding GAPDH band to correct the possible differences in the content of protein loading. Each experiment was repeated 3 times for statistical analysis, and uncropped blots are in Source Data.

A549 = assay: as above; type: cell-based, human; conditions: for p-kinase / kinase pAKT/AKT / p-kinase / kinase pEGFR/EGFR / p-kinase / kinase pERK/ERK: Fig. 2j A549, DMSO = 1, n=1-3
Procedure: as §1

H1975 = assay: as above; type: cell-based, human; conditions: for p-kinase / kinase pAKT/AKT / p-kinase / kinase pEGFR/EGFR / p-kinase / kinase pERK/ERK: Fig. 2h H1975, DMSO = 1, n=1-3
Procedure: as §1

HCC827 = assay: as above; type: cell-based, human
Procedure: as §1

Hela = assay: as above; type: cell-based, human; conditions: HX103 0 to 10 µM, EGF 25 ng/mL
Procedure: as §1

HCC827 cells = assay: FACS assay in cultured cells; conditions: for HX103 dose-dependent signal (Supplementary Fig. 18): 20 µM = 100
Procedure: Briefly, the cultured cells were seeded on the petri dish and counted using Count star BioMed automated cell counter. Around 10^6 live-cells were collected and were pelleted (2000×g, 3 min), followed by washing with PBS (2x). Cells were then resuspended in PBS buffer containing 0.1% BSA (1 × 10^6 cells/mL). […] The cell suspension was resuspended in PBS and analyzed with a FACSVerse^TM flow cytometer (BD Biosciences, LSRFortessa). About 10,000 events per tube were analyzed and the mean fluorescence intensity was detected and analyzed.
For the FACS assay with EGFR antibody, around 10^6 live-cells were collected and washed with PBS (2x). The cells were fixed by 400 µL 4% paraformaldehyde for 15 min at room temperature, followed by permeabilization with 0.1% Triton X-100 for 10 min and blocking with 5% BSA for 30 min. […] The cells were then washed with 0.5% BSA/PBS (3x) and resuspended in 400 µL of 0.1% BSA/PBS. […] The resuspended cell suspension was then analyzed on a FACSVerseTM flow cytometer (BD Biosciences, LSRFortessa). Nonspecific fluorescence binding was omitted by Rabbit mAb IgG isotype control (#3900, CST, 1:100) and the corresponding mean fluorescence was subtracted from the signal measured with each primary antibody. About 10,000 events per tube were analyzed and the mean fluorescence intensity was detected and analyzed.
Subsequently, the treated cells were incubated for 30 min at 37 °C, followed by washing with PBS buffer three times. […] Finally, the co-stained cells were washed with 0.5% BSA/PBS for three times and resuspended in 400 µL of 0.1% BSA/PBS. The obtained cell suspension was ready for analysis. Nonspecific fluorescence binding was omitted by Rabbit mAb IgG isotype control (#3900, CST, 1:100) as described above.
Nonspecific fluorescence binding was omitted by Rabbit mAb IgG isotype control (#3900, CST, 1:100). […] After incubation for another 30 min at room temperature, the co-stained cells were washed with 0.5% BSA/PBS for three times and resuspended in 400 µL of 0.1% BSA/PBS. The obtained cell suspension was ready for analysis. Nonspecific fluorescence binding was omitted by Rabbit mAb IgG isotype control (#3900, CST, 1:100) as described above.
The cells were seeded on the petri dish and cultured at the normal condition with 10% FBS, and that was changed to serum-free condition for 24 h when the cells proliferated at ~80% confluence. […] Nonspecific fluorescence binding was omitted by Rabbit mAb IgG isotype control (#3900, CST, 1:100) as described above.

[1] = Fig. 2i A431, concentration 1 (unit not given), DMSO = 1, n=1-3
[2] = Fig. 2i A431, concentration 3 (unit not given), DMSO = 1, n=1-3
[3] = Fig. 2i A431, concentration 10 (unit not given), DMSO = 1, n=1-3
[4] = concentration 0.3 (unit not given)
[5] = concentration 1 (unit not given)
[6] = concentration 3 (unit not given)
[7] = concentration 10 (unit not given)

## COc1cc2c(Nc3ccc(F)c(Cl)c3)ncnc2cc1OCCCNc1ccc(S(=O)(=O)N(C)C)c2nonc12 [HX103]
A431; [1]
  p-kinase / kinase pAKT/AKT: 0.33 and 0.312 and 0.321
  p-kinase / kinase pERK/ERK: 0.301 and 0.442 and 0.417
A431; [2]
  p-kinase / kinase pAKT/AKT: 0.264 and 0.189 and 0.222
  p-kinase / kinase pERK/ERK: 0.169 and 0.13 and 0.175
A431; [3]
  p-kinase / kinase pAKT/AKT: 0.241 and 0.197 and 0.219
  p-kinase / kinase pEGFR/EGFR: 0.067 and 0.066 and 0.064
A431; HX103 0 to 10 µM, EGF 25 ng/mL
  effect on wild-type EGFR phosphorylation: significantly inhibited
A549; [4]
  p-kinase / kinase pAKT/AKT: 0.202 and 0.332 and 0.222
  p-kinase / kinase pEGFR/EGFR: 0.116 and 0.065 and 0.105
  p-kinase / kinase pERK/ERK: 0.558 and 0.86 and 0.689
A549; [5]
  p-kinase / kinase pAKT/AKT: 0.118 and 0.103 and 0.095
  p-kinase / kinase pERK/ERK: 0.486 and 0.455 and 0.485
A549; [6]
  p-kinase / kinase pEGFR/EGFR: 0.07 and 0.045 and 0.073
  p-kinase / kinase pERK/ERK: 0.34 and 0.535 and 0.512
A549; [7]
  p-kinase / kinase pAKT/AKT: 0.014 and 0.013 and 0.015
  p-kinase / kinase pERK/ERK: 0.39 and 0.424 and 0.512
A549; HX103 0 to 10 µM, EGF 25 ng/mL
  effect on wild-type EGFR phosphorylation: significantly inhibited
H1975; [4]
  p-kinase / kinase pAKT/AKT: 0.698 and 0.724 and 0.636
  p-kinase / kinase pEGFR/EGFR: 0.558 and 0.543 and 0.573
  p-kinase / kinase pERK/ERK: 1.210 and 0.879 and 1.031
H1975; [5]
  p-kinase / kinase pAKT/AKT: 0.488 and 0.317
  p-kinase / kinase pEGFR/EGFR: 0.199 and 0.313 and 0.331
  p-kinase / kinase pERK/ERK: 0.535 and 0.443 and 0.459
H1975; [6]
  p-kinase / kinase pAKT/AKT: 0.579 and 0.573 and 0.560
  p-kinase / kinase pERK/ERK: 0.840 and 0.618 and 0.696
H1975; [7]
  p-kinase / kinase pAKT/AKT: 0.468 and 0.342 and 0.500
  p-kinase / kinase pEGFR/EGFR: 0.219 and 0.161 and 0.276
  p-kinase / kinase pERK/ERK: 0.660 and 0.681 and 0.939
H1975; HX103 0 to 10 µM, EGF 25 ng/mL
  effect on phosphorylation of EGFR and downstream proteins: a certain resistance
HCC827; Fig. 2g HCC827, concentration 0.3 (unit not given), DMSO = 1, n=1-3
  p-kinase / kinase pAKT/AKT: 0.4984 and 0.298 and 0.4432
HCC827; Fig. 2g HCC827, concentration 1 (unit not given), DMSO = 1, n=1-3
  p-kinase / kinase pAKT/AKT: 0.1684 and 0.1251 and 0.1468
HCC827; Fig. 2g HCC827, concentration 10 (unit not given), DMSO = 1, n=1-3
  p-kinase / kinase pERK/ERK: 0.1947 and 0.3677 and 0.3512
HCC827; HX103 0 to 10 µM, EGF 25 ng/mL
  effect on phosphorylation of EGFR and downstream proteins: inhibited the phosphorylation of EGFR and the downstream proteins
Hela
  effect on wild-type EGFR phosphorylation: significantly inhibited
HCC827 cells; HCC827, AVE of n=3
  EGFR(+) HX103 (+) (%) AVE: 80.23%
  HX103 (+) (%) AVE: 86.6667%
HCC827 cells; HCC827, HX103 0.01 µM
  HX103 dose-dependent signal (Supplementary Fig. 18): 0.7326 and 0.7683 and 0.9746
HCC827 cells; HCC827, HX103 0.04 µM
  HX103 dose-dependent signal (Supplementary Fig. 18): 2.846 and 2.806 and 2.831
HCC827 cells; HCC827, HX103 0.37 µM
  HX103 dose-dependent signal (Supplementary Fig. 18): 22.4134 and 22.8581 and 22.7877
HCC827 cells; HCC827, HX103 1.1 µM
  HX103 dose-dependent signal (Supplementary Fig. 18): 38.2787 and 42.4364 and 41.8565
HCC827 cells; HCC827, HX103 3.3 µM
  HX103 dose-dependent signal (Supplementary Fig. 18): 54.3583 and 44.1499 and 45.6521
HCC827 cells; HCC827, HX103 10 µM
  HX103 dose-dependent signal (Supplementary Fig. 18): 74.1678 and 84.8664 and 79.5169
HCC827 cells; HCC827, HX103 15 µM
  HX103 dose-dependent signal (Supplementary Fig. 18): 88.3889 and 68.5257 and 78.4542
HCC827 cells; HCC827, HX103 20 µM
  HX103 dose-dependent signal (Supplementary Fig. 18): 100
HCC827 cells; HCC827, HX103 alone or with Gefitinib, replicates n=1-3
  HX103 signal (Supplementary Fig. 7): 106.679 and 93.3209 and 100
HCC827 cells; HCC827, replicates n=1-3
  EGFR(+) HX103 (+) (%): 76.09% and 81.73% and 82.87%
  HX103(+) (%): 99.17% and 83.21% and 77.62%
HCC827 cells; HX103 5 µM, 30 min, replicates n=1-3
  normalized MFI of HX103 labeling: 92.4893% and 105.794% and 84.1202%
HCC827 cells; HX103 5 µM, replicates n=1-3
  EGFR(+) HX103 (+) (%): 81.73% and 82.87% and 76.09%
